Results from patent US7186703B2, “Derivatives of branched-chain lipophilic molecules and uses thereof” (D-Pharm Ltd., priority 2000, dated 2007).
Several values for one entry are separate records, joined by “and”; a condition that tells them apart may be missing. Equal entries are not always repeated. Where two headings read alike, the source gives them in different places.

Assays:
[1] = assay type: in vivo; conditions: rats, sodium salt; for LC (minimal concentration that caused death): i.a., viability monitored 24 hours
Method: DP-BFA molecules were evaluated for safety and toxicity. Increasing doses of the tested compounds were administered intra-arterially (i.a.) into rats following the protocol described above in Example 17. Animal viability was monitored for 24 hours to evaluate lethal concentrations (LC). LC is defined as the minimal concentration that caused death.
Safety index is defined as the ratio between the lethal dose (LC) and the minimal effective concentration (MEC), wherein MEC corresponds to a calculated concentration of the tested compound that elicits accumulation of three times the amount of Evans blue accumulated in control animals treated with vehicle only, i.e. total accumulation of 3 μg EB. The higher the LC/MEC ratio is, the higher the safety index.

[2] = system: C6 gliosarcoma tumor; assay: Anti-tumor activity in C6 glioma-bearing rats, tumor volume (Example 27); assay type: in vivo, rat; conditions: for anti-tumor effect on glioma growth (in words): rat, in vivo; for Tumor volume (mm^3) ± SE: control 8.1 ± 2.22
Description: The anti-tumor effects of various P-BFAs were studied in the in vivo model system described above in Example 17. Tested P-BFAs were intra-arterially administered at the concentrations previously determined as being effective in permeabilization of the BBB and BTB for Evans blue and Fluorescein extravasation. The experimental procedure for tumor inoculation, as described in Example 23, was followed.
On Day 3–4 following inoculation of the C6 gliosarcoma cells, rat were cannulated through external carotid artery and the tested P-BFAs were infused over 30 seconds, as described in Example 17, except that in this experiment no markers were administered. The treated rats were maintained until Day 7–9, and then sacrificed. Coronal sections were obtained, stained by eosin-hematoxylin, and reviewed histologically to determine tumor volume. Animals treated with vehicle only serve as control. Standard error and Student's test for statistical significance were used.

[3] = system: blood tumor barrier (BTB) of C6 glioma; assay: BTB opening in C6 glioma-bearing rats, Evans blue accumulation in tumor; assay type: in vivo, Sprague Dawley rats; conditions: for EC50: C6 glioma-bearing rats; for BTB EB μg/g Tumor: concentrations around EC50 (Mannitol 25%), unilateral 30 s infusion; for Specificity Tumor/Non-tumor (T/NT): ratio of EB accumulated in tumor and non-tumor brain
Method: (§1) In order to study the ability of DP-BFA compounds to modulate blood tumor barrier (BTB), a model system of C6 glioma-bearing rats, was employed.
(§2) Sprague Dawley (SD) rats were inoculated with C6 gliosarcoma cells following the procedure described by Bartus et al. (Exp Neurol (1996); 142:14–28). A small burr-hole was made in the frontal scalp bone of the rat fixed in a stereotaxis apparatus. Using a Hamilton syringe, 10 μl or 5 μl of media, containing 2.5×10^5 C6 gliosarcoma cells were inoculated into the frontal cortex. Coordinates were 1 mm posterior of bregma, 2.5 mm—lateral, and 3 mm—depth. The needle remained in the place for 5 min. After removal of the needle, fascia and scalp were sutured. The rats were checked 6–8 days after inoculation, when tumors of sufficient size (20–60 mg) had developed. The tumor was weighed after F—Na visualization and dissection. Parts of the rats' brains were subject to histological examinations and monitored for Evans Blue and Fluorescein uptake into ipsilateral tumour tissue, peritumoural tissue and contralateral tissue.
(§3) The bilateral tumor model system of C6 glioma-bearing rats described in Example 23 above was employed for screening of various derivatives of DP-BFA for their ability to permeabilize the blood brain barrier (BBB) in comparison to their effect on the blood tumor barrier (BTB). The experimental procedure described in Example 23 was followed except that the tumor-bearing rats were further treated with DP-BFA. The tested compounds, at concentrations around their EC50 values, were unilaterally infused into the external carotis artery over 30 seconds as described in Example 17. Animals treated with vehicle only serve as a control group. Permeabilization effect was quantitated by measuring accumulation of albumin bound Evans blue dye in tumor (T) versus non-tumor (NT) tissues.
(§4) Specificity index is defined as the ratio between the levels of EB accumulated in tumor and those accumulated in non-tumor brain tissues (T/NT).

[4] = Octanol/saline solubility and partition coefficient, shake-flask technique; conditions: for LogPc (octanol-saline partition coefficient) / logD: octanol/physiological saline; for LogPc (octanol-saline partition coefficient) / Water mg/ml (solubility in aqueous solution): sodium salts; for Water mg/ml (solubility in aqueous solution): physiological saline as aqueous solution; for Octanol mg/ml (solubility in octanol): sodium salts of the branched fatty acids and their PO4 derivatives
Method: The lipophilicity values of various derivatives of branched fatty acids were estimated by comparing the solubility of these compounds in organic versus aqueous solutions. Octanol and physiological saline were used, respectively, as the organic and aqueous solutions. The partition coefficient (Pc) value, i.e. the octanol/saline distribution was measured by the shake-flask technique.

[5] = system: blood brain barrier (BBB); assay: BBB opening in C6 glioma-bearing rats, Evans blue accumulation in non-tumor brain; assay type: in vivo, Sprague Dawley rats; conditions: concentrations around EC50 (Mannitol 25%), unilateral 30 s infusion
Method: as §1, §2, §3, §4

[6] = system: Normal bone marrow (BM) cells; assay: MTT cytotoxicity, normal bone marrow cells; assay type: cell-based, mouse; conditions: five days, read-out: EC50 (50% reduction in cell viability)
Method: (§5) The cytotoxic activity of various phospho-derivatives of branched-chain fatty acids (DP-BFAs) was assayed in vitro in cell cultures that include normal and malignant cell types. The following cell systems were used: • Primary fibroblasts (human) • Normal bone marrow (BM) cells (mouse) • Primary bronchial epithelial cells (human, from Clonetics, cat. no. CC-2541) • Caco-2—colon cancer cell line (human, ATTC, HTB-37) • C6 glioma cell line (rat, ATCC, CRL-2199) • Neuro2a—neuroblastoma cell line (mouse, ATCC, CCL-131) • SKBR-3—breast cancer cell line (human, ATTC, HTB-30) • HL60—myeloid leukemia cell line (human, ATCC, CCL-240) • U937—myeloid leukemia cell line (human)
(§6) Cells were seeded in a microtiter plate in MEM containing 2 mM L-glutamine, 100 units/ml penicillin, 100 ug/ml streptomycin and 10% FCS at 37° C. The cultured cells were incubated, during their linear growth phase in the absence (control group) or presence of various DP-BFAs as indicated. The final concentrations of the tested DP-BFAs ranged from 1.5 to 200 microMolars. At the end of the incubation period, which was five days for the bone marrow cells and three days for all the other cell lines, the cytotoxic effect of the added P-BFA on the cells was estimated by using the colorimetric MTT assay. The MTT assay (Mosmann (1983) J. Immunol Methods 65: 55–63) measures mitochondrial reductase activity and serves for quantitative assessment of cellular viability. Drug concentration that causes 50% reduction in cell viability in comparison to the control group, is defined as EC50. The EC50 values of the tested DP-BFA compounds were calculated from dose response curves established for each of the different assayed cell lines.
(§7) Each EC50 value is an average of EC50 values derived from 1–5 independent experiments.

[7] = system: Primary bronchial epithelial cells; assay: MTT cytotoxicity, normal primary epithelial cells; assay type: cell-based, human; conditions: Normal primary epithel, three days, read-out: EC50 (50% reduction in cell viability)
Method: as §5, §6, §7

[8] = system: SKBR-3 breast cancer cell line; assay: MTT cytotoxicity, SKBR-3; assay type: cell-based, human; conditions: three days, read-out: EC50 (50% reduction in cell viability)
Method: as §5, §6, §7

[9] = system: Primary fibroblasts; assay: MTT cytotoxicity, normal primary fibroblasts; assay type: cell-based, human; conditions: three days, read-out: EC50 (50% reduction in cell viability)
Method: as §5, §6, §7

[10] = system: HL60 myeloid leukemia cell line; assay: MTT cytotoxicity, HL60; assay type: cell-based, human; conditions: HL60, three days, read-out: EC50 (50% reduction in cell viability)
Method: as §5, §6, §7

[11] = system: U937 myeloid leukemia cell line; assay: MTT cytotoxicity, U937; assay type: cell-based, human; conditions: U937, three days, read-out: EC50 (50% reduction in cell viability)
Method: as §5, §6, §7

[12] = system: Caco-2 colon cancer cell line; assay: MTT cytotoxicity, Caco-2; assay type: cell-based, human; conditions: Caco-2, three days, read-out: EC50 (50% reduction in cell viability)
Method: as §5, §6, §7

[13] = Mus musculus, Bone marrow cell, 120 h
[14] = Homo sapiens, Primary bronchial epithelial cell, 72 h
[15] = octanol, organic solvent or mixture
[16] = physiological saline, saline or isotonic

| Compound | LC (minimal concentration that caused death) [1] | anti-tumor effect on glioma growth (in words) [2] | EC50 [3] | BTB EB μg/g Tumor [3] | Specificity Tumor/Non-tumor (T/NT) [3] | LogPc (octanol-saline partition coefficient) [4] | Water mg/ml (solubility in aqueous solution) [4] | Octanol mg/ml (solubility in octanol) [4] | BBB EB μg/g Non-tumor brain [5] | EC50 [6, 13] | Safety LC/MEC [1] | EC50 ([3]; Rattus norvegicus) | EC50 [7, 14] | EC50 ([8]; Homo sapiens, SK-BR-3, 72 h) | EC50 ([9]; Homo sapiens, Fibroblast, 72 h) | solubility [4, 15] | logD [4] | solubility [4, 16] | EC50 [8] | EC50 [12] | further results |
| --- | --- | --- | --- | --- | --- | --- | --- | --- | --- | --- | --- | --- | --- | --- | --- | --- | --- | --- | --- | --- | --- |
| 2-(4′-Hexadecanoyloxy)ethoxyethyl phosphate [3,12-DEG-PO4] | 30 ± 5 µM | most pronounced anti-tumor effect | 7 ± 2 µM | 34 ± 8 µg/g | 22 and 22 ± 5 | 1.31 | 8 mg/mL | >5 mg/mL | 2.0 ± 0.2 µg/g | – | – | – | – | – | – | – | – | – | – | – | – |
| CCCCCCCCCCCCC(CCC)C(=O)OCCOP(=O)([O-])OCC[N+](C)(C)C (stereo not drawn) [3,12-MEG-PC, 2-(2′-Propyltetradecanoyloxy)ethylphosphocholine] | 15 ± 2 µM | significant anti-tumor activity | – | 12 µg/g | 2 | – | – | – | 6 µg/g | 95 µM | 1.5 | 20 µM | 94 µM | 50 µM | 160 µM | > 10000 µg/mL | 1.22 | > 10000 µg/mL | – | – | Tumor volume (mm^3) ± SE ([2]; P-BFA 10 μM i.a.): 2.88 ± 0.6 mm^3; EC50 ([10]; Homo sapiens, HL-60, 72 h): 20 µM; EC50 ([11]; Homo sapiens, U-937, 72 h): 9 µM; EC50 ([12]; Homo sapiens, 72 h): 75 µM |
| CCCCCCCCCCCCC(CCC)OP(=O)([O-])OCC[N+](C)(C)C (stereo not drawn) [3,12-PC, 4-Hexadecanyl phosphocholine] | 80 ± 16 µM | – | 52 ± 7 µM | 17 ± 2 µg/g | 1.8 ± 0.5 | – | >10 mg/mL | >10 mg/mL | 10 ± 2 µg/g | – | 3.5 | – | – | – | – | – | – | – | 62 µM | 150 µM | Tumor volume (mm^3) ± SE ([2]; P-BFA 50 μM i.a.): 3.8 ± 0.8 mm^3; EC50 [10]: 47 µM |
| CCCCCCCCCCCCC(CCC)C(=O)OCCOCCOP(=O)([O-])[O-].[Na+].[Na+] (stereo not drawn) [3,12-DEG-PO4Na2, 2-[2′-(2″-Propyltetradecanoyloxy)-ethoxy]ethyl Disodium Phosphate] | – | – | – | – | – | – | – | – | – | – | – | – | – | – | – | – | – | – | 60 µM | 40 µM | EC50 [6]: 62 µM; Tumor volume (mm^3) ± SE ([2]; P-BFA 30 μM i.a.): 1.6 ± 0.4 mm^3; EC50 [7]: > 200 µM; EC50 [9]: 65 µM; EC50 [11]: 25 µM |
| CCCCCCCCCCCCC(CCC)C(=O)OCCOCCOP(=O)([O-])OCC[N+](C)(C)C (stereo not drawn) [3,12-DEG-PC, 2-(2′-Propyltetradecanoyloxy)ethoxyethylphosphocholine] | 300 ± 60 µM | – | – | 11 µg/g | 2 | – | – | – | 5 µg/g | 166 µM | 20 | 60 µM | 90 µM | 40 µM | 170 µM | > 50000 µg/mL | 0.73 | > 10000 µg/mL | – | – | Tumor volume (mm^3) ± SE ([2]; P-BFA 60 μM i.a.): 3.9 ± 1.0 mm^3; EC50 ([10]; Homo sapiens, HL-60, 72 h): 11 µM; EC50 ([11]; Homo sapiens, U-937, 72 h): 6 µM; EC50 ([12]; Homo sapiens, 72 h): 113 µM |
| CCCCCCCCCCCCC(CCC)C(=O)[O-].[Na+] (stereo not drawn) [3,12-Na, reference compound] | 40 ± 10 µM | – | 22 ± 4 µM | 44 ± 8 µg/g | 1.1 ± 0.3 | 0.99 | >10 mg/mL | >20 mg/mL | 43 ± 9 µg/g | – | 6.1 | – | – | – | – | – | – | – | 130 µM | 100 µM | EC50 [11]: 68 µM |
